# Assays:
# [1] = biological target: T1, γ-Glutamylcysteine Synthetase (Rattus norvegicus, UniProt P19468); experiment: Inhibition of γ-glutamylcysteine synthetase (preincubation assay); format: biochemical; conditions: for Ki: 30 min preincubation, 22° C., read-out: Kiapp, Concentration for 50% Inhibition; for inhibition of γ-glutamylcysteine synthetase (in words): ranking compared with BSO
# T1 construct: Rat kidney γ-Glutamylcysteine synthetase was purified from Sprague Dawley (Taconic Farms) rats; from tissue; host or cells: rat kidney (Sprague Dawley, Taconic Farms)
# T1 sequence (P19468 1-637): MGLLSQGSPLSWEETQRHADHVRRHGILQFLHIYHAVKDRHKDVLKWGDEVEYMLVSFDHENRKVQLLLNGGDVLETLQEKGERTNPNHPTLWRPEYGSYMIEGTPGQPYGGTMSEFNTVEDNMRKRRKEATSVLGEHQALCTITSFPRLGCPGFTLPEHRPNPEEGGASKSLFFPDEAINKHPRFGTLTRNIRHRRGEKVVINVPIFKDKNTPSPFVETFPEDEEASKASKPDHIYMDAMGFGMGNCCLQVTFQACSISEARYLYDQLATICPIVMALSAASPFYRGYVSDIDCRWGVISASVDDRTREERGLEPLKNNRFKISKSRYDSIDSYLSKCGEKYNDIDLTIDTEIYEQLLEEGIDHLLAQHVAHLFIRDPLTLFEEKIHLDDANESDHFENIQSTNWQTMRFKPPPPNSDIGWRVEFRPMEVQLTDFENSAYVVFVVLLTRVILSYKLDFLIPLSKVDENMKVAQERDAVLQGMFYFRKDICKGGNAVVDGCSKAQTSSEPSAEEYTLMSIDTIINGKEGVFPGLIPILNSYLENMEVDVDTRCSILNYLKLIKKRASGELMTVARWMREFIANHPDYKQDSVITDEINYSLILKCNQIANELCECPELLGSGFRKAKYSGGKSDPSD
# T1 sequence (P48508 1-274 partner): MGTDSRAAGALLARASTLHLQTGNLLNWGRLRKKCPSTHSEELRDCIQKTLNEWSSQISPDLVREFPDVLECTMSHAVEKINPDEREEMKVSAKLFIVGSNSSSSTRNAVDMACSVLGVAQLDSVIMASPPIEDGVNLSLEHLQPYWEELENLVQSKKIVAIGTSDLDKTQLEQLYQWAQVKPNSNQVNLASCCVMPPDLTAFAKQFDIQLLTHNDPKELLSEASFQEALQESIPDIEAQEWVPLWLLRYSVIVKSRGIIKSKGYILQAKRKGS
# Protocol: Rat kidney γ-Glutamylcysteine synthetase was purified from Sprague Dawley (Taconic Farms) rats (Seelig., Methods in Enzymology, 1985, 113:379-390).
# The preincubation assay of γ-glutamylcysteine synthetase is given below. γ-Glutamylcysteine synthetase (4.6 units) was added to a mixture (final volume, 50 μl) containing 100 mM Tris/HCl (pH 8.2), 5 mM ATP, 20 mM MgCl2, 0.2 mM EDTA, and the sulfoximine being evaluated. After incubation at 22° C. for 30 minutes, a 45 μl aliquot of the preincubation mixture was added to the assay as follows.
# γ-Glutamylcysteine synthetase was assayed as follows (Griffith et al, J. Biological Chem., 1979, 254:1205-1210). The reaction mixture (final volume, 1.0 ml) contained 100 mM Tris/HCl (pH 8.2), 120 mM KCl, 5 mM phosphoenolpyruvate, 20 mM MgCl2, 10 mM sodium L-glutamate, 10 mM L-α-aminobutyric acid, 0.2 mM EDTA, 0.4 mM NADH, pyruvate kinase (10 IU), and lactate dehydrogenase (10 IU). The reaction (37° C.) was initiated by the addition of γ-glutamylcysteine synthetase and the oxidation of NADH, equivalent to ADP formation, was recorded at 340 nm.
# glutathione [2] = experiment: Tissue glutathione levels after intraperitoneal administration of sulfoximines; format: in vivo, mouse; conditions: for % Decrease in glutathione / Glutathione level: 2 mmol/Kg i.p.
# Protocol: Male mice (Swiss Webster) were fasted overnight (about 16 hr). L-3-methylbuthionine-SR-sulfoximine (3 mBSO; L-S-3-methylbutyl homocysteine-SR-sulfoximine; L-S-isopentyl homocysteine-SR-sulfoximine), L-buthionine-SR-sulfoximine(BSO; L-S-butyl homocysteine-SR-sulfoximine), L-2-methylbuthiomine-SR-sulfoximine (2 mBSO, L-S-2methylbutyl homocysteine-SR-sulfoximine), or saline (0.9% NaCl) were administered to mice at 2 mmol/Kg intraperitoneally (50 mM, Ph ^~ 7). At the times indicated, plasma and tissues were obtained and assayed for glutathione (GSH+1/2 GSSG) as described by Anderson, Methods in Enzymology, 1985, 113:548-555.
# glutathione [3] = experiment: Tissue glutathione after oral administration of sulfoximines (Table 5); format: in vivo, mouse; conditions: 2 mmol/kg
# Protocol: Male mice (Swiss Webster) were fasted overnight (about 16 hr.) L-buthionine-SR-sulfoximine (BSO, S-n-butyl homocysteine-SR-sulfoximine), L-S-cyclohexylmethyl homocysteine-SR-sulfoximine (CHMSO); L-S-2-ethylbutylhomocysteine-SR-sulfoximine (2 EtBSO, L-S-2-ethylbutyl homocysteine-SR-sulfoximine, or saline (0.9% NaCl) were administered to mice at 2 mmol/Kg by intubation (100 mM; pH about 1 with HCl (200 mM). At the times indicated, plasma and tissues were obtained and assayed for glutathione (GSH+1/2 GSSG) as described by Anderson, Methods in Enzymology, 1985, 113:548-555. (See Table 4 and 5.)
# [4] = Detection of compound in mouse bile; format: in vivo
# [5] = tested on: mouse L1210 leukemia cells; conditions: cited from earlier work
Ki [1] [µM],SMILES,"% Decrease in glutathione (glutathione [2]; brain, 2 hr) [%]","Glutathione level (glutathione [2]; brain, 2 hr) [µmol/g]","% Decrease in glutathione (glutathione [2]; brain, 12 hr) [%]","Glutathione level (glutathione [2]; brain, 12 hr) [µmol/g]","% Decrease in glutathione (glutathione [2]; heart, 2 hr) [%]","Glutathione level (glutathione [2]; heart, 2 hr) [µmol/g]","% Decrease in glutathione (glutathione [2]; heart, 12 hr) [%]","Glutathione level (glutathione [2]; heart, 12 hr) [µmol/g]","% Decrease in glutathione (glutathione [2]; kidney, 2 hr) [%]","Glutathione level (glutathione [2]; kidney, 2 hr) [µmol/g]","% Decrease in glutathione (glutathione [2]; kidney, 12 hr) [%]","Glutathione level (glutathione [2]; kidney, 12 hr) [µmol/g]","% Decrease in glutathione (glutathione [2]; liver, 2 hr) [%]","Glutathione level (glutathione [2]; liver, 2 hr) [µmol/g]","% Decrease in glutathione (glutathione [2]; liver, 12 hr) [%]","Glutathione level (glutathione [2]; liver, 12 hr) [µmol/g]","% Decrease in glutathione (glutathione [2]; plasma, 2 hr) [%]","Glutathione level (glutathione [2]; plasma, 2 hr) [µM]","% Decrease in glutathione (glutathione [2]; plasma, 12 hr) [%]",other results
18.4,"CCC(C)CS(=N)(=O)CC[C@H](N)C(=O)O (stereo partly drawn) [2m BSO, L-S-2methylbutyl homocysteine-SR-sulfoximine]",5,2.19,0,2.18,14,1.15,8,1.19,25,2.08,0,4.10,18,4.49,0,5.05,15,25.2,8,"Glutathione level (glutathione [2]; plasma, 12 hr): 26.3 µM"
,N[C@@H](Cc1ccc(N(CCCl)CCCl)cc1)C(=O)O [phenylalanine mustard],,,,,,,,,,,,,,,,,,,,dose needed to kill the most resistant cells versus most sensitive cell lines [5]: substantially higher; conversion of phenylalanine mustard by resistant cells ([5]; glutathione-dependent dehydrochlorination): converted phenylalanine mustard to a non-toxic hydroxy derivative
43.3,"CCC(CC)CS(=N)(=O)CC[C@H](N)C(=O)O (stereo partly drawn) [2ETBSO, L-S-2-ethylbutyl homocysteine-SR-sulfoximine]",,,,,,,,,,,,,,,,,,,,
0.6,"CC(C)CCS(=N)(=O)CC[C@H](N)C(=O)O (stereo partly drawn) [3m BSO, L-S-3-methylbutyl homocysteine-SR-sulfoximine]",10,2.09,10,1.92,16,1.13,57,0.55,81,0.73,53,1.69,77,1.26,22,3.86,64,10.6,30,"inhibition of γ-glutamylcysteine synthetase (in words) [1]: best inhibitors, about equal to BSO; depletion of liver glutathione compared with BSO (glutathione [2]; liver, after 2 hr): more effective than BSO; Glutathione level (glutathione [2]; plasma, 12 hr): 19.2 µM"

SMILES,Ki [1] [µM],"% Decrease in glutathione (glutathione [2]; brain, 2 hr) [%]","Glutathione level (glutathione [2]; brain, 2 hr) [µmol/g]","% Decrease in glutathione (glutathione [2]; brain, 12 hr) [%]","Glutathione level (glutathione [2]; brain, 12 hr) [µmol/g]","% Decrease in glutathione (glutathione [2]; heart, 2 hr) [%]","Glutathione level (glutathione [2]; heart, 2 hr) [µmol/g]","% Decrease in glutathione (glutathione [2]; heart, 12 hr) [%]","Glutathione level (glutathione [2]; heart, 12 hr) [µmol/g]","% Decrease in glutathione (glutathione [2]; kidney, 2 hr) [%]","Glutathione level (glutathione [2]; kidney, 2 hr) [µmol/g]","% Decrease in glutathione (glutathione [2]; kidney, 12 hr) [%]","Glutathione level (glutathione [2]; kidney, 12 hr) [µmol/g]","% Decrease in glutathione (glutathione [2]; liver, 2 hr) [%]","Glutathione level (glutathione [2]; liver, 2 hr) [µmol/g]","% Decrease in glutathione (glutathione [2]; liver, 12 hr) [%]","Glutathione level (glutathione [2]; liver, 12 hr) [µmol/g]","% Decrease in glutathione (glutathione [2]; plasma, 2 hr) [%]","Glutathione level (glutathione [2]; plasma, 2 hr) [µM]","% Decrease in glutathione (glutathione [2]; plasma, 12 hr) [%]",other results
"N=S(=O)(CC[C@H](N)C(=O)O)CC1CCCCC1 (stereo partly drawn) [CHMSO, L-S-cyclohexylmethyl homocysteine-SR-sulfoximine]",3.8,,,,,,,,,,,,,,,,,,,,"inhibition of γ-glutamylcysteine synthetase (in words) [1]: best inhibitors, about equal to BSO; decrease in brain glutathione levels (glutathione [3]; 12 hours, experimental error about 5%): no decrease; decrease in glutathione levels (cardio-toxicity) (glutathione [3]; 2 hours, mice): 8%; detection in mouse bile [4]: CHMSO was detected"

# Source: patent US5476966A, “Method for depletion of glutathione” (Cornell Research Foundation, Inc., priority 1995, dated 1995)
